Results on five compounds are retold here after US4195022A, “4-Desacetoxy-4α-hydroxyvinblastine and related compounds” (Eli Lilly and Company, priority 1978, dated 1980).

Counter-ions that a name gives are not always drawn.

The conditions of series [1]: background statement on known alkaloids; result in words; cited from earlier work.
For series [2], the system named is Gardner lymphosarcoma (GLS). Briefly: anti-tumor activity against transplanted Gardner lymphosarcoma (GLS) in mice. It counts as in vivo. To be noted: intraperitoneal. As to the method: (§1) The compounds of this invention, as represented by Formula II above, are anti-tumor agents. […] For this determination, a protocol was used which involved the administration of the drug by the intraperitoneal route at a given dose level for 7-10 days after innoculation with the tumor or alternatively, on the first, fifth, and ninth days after innoculation.
(§2) The following table--Table 1--give the results of several experiments in which transplanted tumors in mice were treated successfully with a compound of this invention.
(§3) In the table, column 1 gives the name of the compound; column 2, the transplanted tumor; column 3, the dose level or dose level range and the number of days the dosage was administered; and column 4, the percent inhibition of tumor growth or percent prolongation of survival time, e.g., B16. (GLS is an abbreviation for Gardner lymphosarcoma; CA755 is an adenocarcinoma; and B16 is a melanoma.).

Series [3] concerns Chinese hamster ovary cells. The experiment in a line: mitotic inhibition in Chinese hamster ovary cells. The format is cell-based. An excerpt: The compounds of this invention are mitotic inhibitors in Chinese hamster ovary cells.
Series [4] deals with CA755 adenocarcinoma. Briefly: anti-tumor activity against transplanted adenocarcinoma 755 (CA755) in mice. The format is in vivo. To be noted: 755, intraperitoneal, 3.0 mg./kg. × 10 days. As to the method:
as §1, §2, §3

Series [5] deals with B16 melanoma. The experiment in a line: anti-tumor activity against transplanted B16 melanoma in mice (prolongation of survival time). The format is in vivo. To be noted: B16, intraperitoneal; for toxic: 9.0 mg./kg. × 3 days. As to the method: as §1, §2, §3

As for `CCC(=O)C[C@@H]1CN(C=O)CCc2c([nH]c3ccccc23)[C@@](C(=O)OC)(c2cc3c(cc2OC)N(C)[C@H]2[C@](O)(C(=O)OC)[C@H](OC(C)=O)[C@]4(CC)C=CCN5CC[C@]32[C@@H]54)C1` [vinamidine], the anti-cancer activity entry in series [1] was “chemotherapeutically-inactive”.
For leurosine N-oxide [pleurosine], the anti-cancer activity result in series [1] is listed as “loss of anti-cancer activity”.
Regarding `CC[C@]1(O)C[C@@H]2CN(CCc3c([nH]c4ccccc34)[C@@](C(=O)OC)(c3cc4c(cc3OC)N(C)[C@H]3[C@@](O)(C(=O)OC)[C@@H](O)[C@]5(CC)C=CCN6CC[C@]43[C@@H]65)C2)C1` [4-Desacetoxy-4α-hydroxy-vinblastine, 4-Desacetoxy-4α-hydroxyvinblastine], the “Percent Inhibition of tumor growth” value is reported as 35% in series [2] (1.5 mg./kg. × 10 days, day 7); 25% in series [2] (1.5 mg./kg. × 10 days, day 11); 91% in series [2] (3.0 mg./kg. × 10 days, day 7); 78% in series [2] (3.0 mg./kg. × 10 days, day 11); 100% in series [2] (6.0 mg./kg. × 10 days, day 7); 38% in series [4]. In addition, the toxic entry in series [2] (6.0 mg./kg. × 10 days) and in series [5] was “toxic” in each case. Moreover, in series [3] (Cricetulus griseus, read-out: mitotic inhibition, activity as low as), the minimal effective concentration stood at 0.01 µg/mL. In addition, the “mitotic inhibition compared with vinblastine sulfate or 4-desacetylvinblastine” value in series [3] (result in words) is listed as “roughly corresponding to that seen with either vinblastine sulfate or with 4-desacetylvinblastine”. In addition, the “Percent Prolongation of Survival Time” value in series [5] (3.0 mg./kg. × 3 days) was 65%; in series [5] (6.0 mg./kg. × 3 days), 90%.
As for `CC[C@]1(O)C[C@@H]2CN(CCc3c([nH]c4ccccc34)[C@@](C(=O)OC)(c3cc4c(cc3OC)N(C=O)[C@H]3[C@@](O)(C(=O)OC)[C@@H](O)[C@]5(CC)C=CCN6CC[C@]43[C@@H]65)C2)C1` [4-Desacetoxy-4α-hydroxy-vincristine sulfate], the “Percent Inhibition of tumor growth” value in series [2] (1.5 mg./kg. × 10 days, day 7) is reported as 36%; in series [2] (1.5 mg./kg. × 10 days, day 11), 29%; in series [2] (3.0 mg./kg. × 10 days, day 7), 100%; in series [2] (3.0 mg./kg. × 10 days, day 11), 100%; in series [2] (6.0 mg./kg. × 10 days, day 7) it was 100%. In addition, the toxic result in series [2] (6.0 mg./kg. × 10 days) was “toxic”.
`CC[C@]1(O)C[C@@H]2CN(CCc3c([nH]c4ccccc34)[C@@](C(=O)OC)(c3cc4c(cc3OC)N(C)[C@H]3[C@@](O)(C(=O)NN)[C@@H](O)[C@]5(CC)C=CCN6CC[C@]43[C@@H]65)C2)C1` [4-Desacetoxy-4α-hydroxyvinblastine C-3 carboxhydrazide]: the “Percent Inhibition of tumor growth” value in series [2] (1.5 mg./kg. × 10 days, day 7) came out at 97%; in series [2] (1.5 mg./kg. × 10 days, day 11), 98%; in series [2] (3.0 mg./kg. × 10 days, day 7), 100%; in series [2] (3.0 mg./kg. × 10 days, day 11), 100%. Further, the toxic entry in series [2] (6.0 mg./kg. × 10 days) and in series [5] was “toxic” throughout. In addition, the “Percent Prolongation of Survival Time” value in series [5] (3.0 mg./kg. × 3 days) worked out at 67%; in series [5] (6.0 mg./kg. × 3 days), 121%.
